Reference: patent publication US9353082B2, “Pharmaceutical compounds” (BIAL—PORTELA & CA, S.A., priority 2008, dated 2016)
Counter-ions that a name gives are not always drawn.

Assays:
FAAH [1] = target: T1, FAAH (Mus musculus, UniProt O08914); assay: In vivo FAAH inhibition after oral dosing, remaining activity in liver homogenate (LVh, peripheral tissue); set-up: species or system NMRI mice; settings: liver homogenate, low value = strong inhibitor; for In Vivo LVh 3 mg·kg 8 h (remaining FAAH activity, % of control): 8 h after dosing; for In Vivo LVh 3 mg · kg · 8 h (remaining FAAH activity): 3 mg/kg oral
T1 construct: A fragment of liver, left lung lobe and brain without cerebellum were removed; from tissue; host or cells: male NMRI mice; brain (without cerebellum) and liver homogenates
T1 sequence (O08914 1-579): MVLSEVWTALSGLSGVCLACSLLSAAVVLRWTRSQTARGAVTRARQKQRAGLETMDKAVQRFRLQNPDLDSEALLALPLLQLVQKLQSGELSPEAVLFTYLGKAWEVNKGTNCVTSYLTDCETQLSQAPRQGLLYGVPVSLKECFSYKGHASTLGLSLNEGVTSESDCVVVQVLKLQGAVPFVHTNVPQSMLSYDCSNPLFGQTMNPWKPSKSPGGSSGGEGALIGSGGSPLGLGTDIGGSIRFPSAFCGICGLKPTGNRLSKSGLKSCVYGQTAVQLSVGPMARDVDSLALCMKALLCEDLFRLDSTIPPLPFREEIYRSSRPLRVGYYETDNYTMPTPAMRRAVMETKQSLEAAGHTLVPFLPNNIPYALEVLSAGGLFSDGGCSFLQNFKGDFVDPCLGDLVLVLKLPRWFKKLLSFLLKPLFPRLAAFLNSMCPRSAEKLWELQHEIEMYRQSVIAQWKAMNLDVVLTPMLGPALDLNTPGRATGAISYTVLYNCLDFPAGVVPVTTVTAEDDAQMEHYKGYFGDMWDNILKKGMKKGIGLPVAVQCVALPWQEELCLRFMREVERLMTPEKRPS
Description: (§1) The in vivo test was performed according to the protocol described below. BRh indicates inhibition in central nervous tissue and LVh indicates inhibition in peripheral tissue, in this case liver.
(§2) The animals used for experiments were male NMRI mice (weighing 27-44 g) obtained from Interfauna Ibérica (Spain). Mice were kept 5 per cage, under controlled environmental conditions (12 hr light/dark cycle and room temperature 22±1° C.). Food and tap water were allowed ad libitum and the experiments were all carried out during daylight hours.
(§3) Animals were administered 30 mg/kg or 3 mg/kg compounds of the invention via oral route (8 ml/kg; compound suspended in 0.5% carboxymethylcellulose (CMC) or solubilized in water) or vehicle (controls) using animal feeding stainless steel curve needles (Perfectum, U.S.A.). Fifteen minutes before sacrifice animal were anesthetized with pentobarbital 60 mg/kg administered intraperitoneally. A fragment of liver, left lung lobe and brain without cerebellum were removed and put in plastic vials containing membrane buffer (3 mM MgCl2, 1 mM EDTA, 50 mM Tris HCl pH 7.4). Tissues were stored at −30° C. until analysis.
(§4) Animals were always fasted overnight before administration of compounds except for time points of >18 h, where food was removed on the morning of day of administration and the compound was administered in the afternoon of the same day. Animals were then given water but nothing else.
(§5) Tissues were thawed on ice and were homogenized in 10 volumes of membrane buffer (3 mM MgCl2, 1 mM EDTA, 50 mM Tris HCl pH 7.4) with either Potter-Elvejhem (brains—8 strokes at 500 rpm) or Heidolph Diax (livers—2 strokes at position 5 for 20 sec with 30 sec pauses).
(§6) Total protein in tissues was determined with the BioRad Protein Assay (BioRad) using a standard curve of BSA (50-250 μg/ml).
(§7) Reaction mix (total volume of 200 μl) contained: […] (2 μM AEA+5 nM ^3H-AEA), 0.1% fatty acid free BSA, 15 μg (brain), 5 μg (liver) or 50 μg (lung) protein, in 1 mM EDTA, 10 mM Tris pH 7.6. After a […] pre-incubation period at 37° C., reaction was started by the addition of the substrate solution (cold AEA+radiolabelled AEA+BSA). Reaction was carried out for 10 min (brain and lung) or […] (liver) before termination by the addition of 400 μl activated charcoal suspension (8 g charcoal in 32 ml 0.5 M HCl in continuous agitation). After a […] incubation period at room temperature with agitation, charcoal was sedimented by centrifugation in microfuge (10 min at 13000 rpm). 200 μl of the supernatant were added to 800 μl Optiphase Supermix scintillation cocktail previously distributed in 24-well plates. Counts per minute (cpm) were determined in a MicrobetaTriLux scintillation counter.
(§8) In each assay blanks (without protein) were prepared.
(§9) The percentage of remaining enzymatic activity was calculated in respect to controls and after blank subtraction.

FAAH [2] = target: T1, FAAH; assay: In vivo FAAH inhibition after oral dosing, remaining activity in brain homogenate (BRh, central nervous tissue); set-up: species or system NMRI mice; settings: brain homogenate, low value = strong inhibitor; for In Vivo BRh 3 mg·kg 8 h (remaining FAAH activity, % of control): 8 h after dosing; for In Vivo BRh 3 mg · kg · 8 h (remaining FAAH activity): 3 mg/kg oral
Description: as §1, §2, §3, §4, §5, §6, §7, §8, §9

Row | SMILES | In Vivo LVh 3 mg·kg 8 h (remaining FAAH activity, % of control) (FAAH [1]) | In Vivo BRh 3 mg·kg 8 h (remaining FAAH activity, % of control) (FAAH [2]) | In Vivo LVh 3 mg · kg · 8 h (remaining FAAH activity) (FAAH [1]) | In Vivo BRh 3 mg · kg · 8 h (remaining FAAH activity) (FAAH [2])
1 | CN(C)c1ccc(-c2cn(C(=O)N(C)C3CCCCC3)cn2)cc1N [Compound no. 447, 4-(3-amino-4-(dimethylamino)phenyl)-N-cyclohexyl-N-methyl-1H-imidazole-1-carboxamide] | 6.5 % of control | 11.8 % of control |  | 
2 | COc1ccc(-c2cn(C(=O)N(C)C3CCNCC3)cn2)cc1N [Compound no. 450, 4-(3-amino-4-methoxyphenyl)-N-methyl-N-(piperidin-4-yl)-1H-imidazole-1-carboxamide] | 65.4 % of control | 114.2 % of control |  | 
3 | CN(C(=O)n1cnc(-c2ccc(O)cc2)c1)C1CCN(Cc2ccccc2)CC1 [Compound no. 451, N-(1-benzylpiperidin-4-yl)-4-(4-hydroxyphenyl)-N-methyl-1H-imidazole-1-carboxamide hydrobromide] | 0.3 % of control | 1.1 % of control |  | 
4 | Br.CN(C(=O)n1cnc(-c2ccc(O)c(F)c2)c1)C1CCN(Cc2ccccc2)CC1 [Compound no. 454, N-(1-benzylpiperidin-4-yl)-4-(3-fluoro-4-hydroxyphenyl)-N-methyl-1H-imidazole-1-carboxamide hydrobromide] | 3 % of control | 3.1 % of control |  | 
5 | Br.CN(C(=O)n1cnc(-c2ccc(O)c([N+](=O)[O-])c2)c1)C1CCN(Cc2ccccc2)CC1 [Compound no. 457, N-(1-benzylpiperidin-4-yl)-4-(4-hydroxy-3-nitrophenyl)-N-methyl-1H-imidazole-1-carboxamide hydrobromide] | 10.6 % of control | 28.1 % of control |  | 
6 | CN(C(=O)n1cnc(-c2ccc[n+]([O-])c2)c1)C1CCN(Cc2ccccc2)CC1 [Compound no. 459, 3-(1-((1-benzylpiperidin-4-yl)(methyl)carbamoyl)-1H-imidazol-4-yl)pyridine 1-oxide] | 1.9 % of control | 1.3 % of control |  | 
7 | Br.CN(C(=O)n1cnc(-c2ccc(O)c(O)c2)c1)C1CCN(Cc2ccccc2)CC1 [Compound no. 465, N-(1-benzylpiperidin-4-yl)-4-(3,4-dihydroxyphenyl)-N-methyl-1H-imidazole-1-carboxamide hydrobromide] | 3.1 % of control | 3.8 % of control |  | 
8 | COc1ccc(-c2cn(C(=O)N(C)C3CCOCC3)cn2)cc1N [Compound no. 468, 4-(3-amino-4-methoxyphenyl)-N-methyl-N-(tetrahydro-2H-pyran-4-yl)-1H-imidazole-1-carboxamide] | 4.3 % of control | 4.7 % of control |  | 
9 | CN(C(=O)n1cnc(-c2ccc(O)cc2)c1)C1CCN(C(=O)OC(C)(C)C)CC1 [Compound no. 469, tert-butyl 4-(4-(4-hydroxyphenyl)-N-methyl-1H-imidazole-1-carboxamido)piperidine-1-carboxylate] | 0.7 % of control | 1.4 % of control |  | 
10 | COc1ccc(-c2cn(C(=O)N(C)C3CCCCC3)cn2)cc1C(N)=O [Compound no. 482, 4-(3-carbamoyl-4-methoxyphenyl)-N-cyclohexyl-N-methyl-1H-imidazole-1-carboxamide] | 16.7 % of control | 83.2 % of control |  | 
11 | COc1ccc(-c2cn(C(=O)N(C)C3CCCCC3)cn2)cc1NS(C)(=O)=O [Compound no. 485, N-cyclohexyl-4-(4-methoxy-3-(methylsulfonamido)phenyl)-N-methyl-1H-imidazole-1-carboxamide] | 15.1 % of control | 92.1 % of control |  | 
12 | CN(C(=O)n1cnc(-c2cccnc2)c1)C1CCN(CCc2ccccc2)CC1 [Compound no. 488, N-methyl-N-(1-phenethylpiperidin-4-yl)-4-(pyridin-3-yl)-1H-imidazole-1-carboxamide] | 2 % of control | 3.8 % of control |  | 
13 | CN(C(=O)n1nnc2ccccc21)C1CCN(Cc2ccccc2)CC1.Cl [Compound no. 492, N-(1-benzylpiperidin-4-yl)-N-methyl-1H-benzo[d][1,2,3]triazole-1-carboxamide hydrochloride] | 0.7 % of control | 0.9 % of control |  | 

Second part, the compound after the results:

Row | In Vivo LVh 3 mg·kg 8 h (remaining FAAH activity, % of control) (FAAH [1]) | In Vivo BRh 3 mg·kg 8 h (remaining FAAH activity, % of control) (FAAH [2]) | In Vivo LVh 3 mg · kg · 8 h (remaining FAAH activity) (FAAH [1]) | In Vivo BRh 3 mg · kg · 8 h (remaining FAAH activity) (FAAH [2]) | SMILES
14 |  |  | 22.9 % of control | 48.9 % of control | CN(C(=O)n1cnc(-c2ccc(O)c([N+](=O)[O-])c2)c1)C1CCOCC1 [Compound no. 494, 4-(4-hydroxy-3-nitrophenyl)-N-methyl-N-(tetrahydro-2H-pyran-4-yl)-1H-imidazole-1-carboxamide]
15 |  |  | 2.3 % of control | 2.1 % of control | CN(C(=O)n1cnc(-c2ccc(O)c(F)c2)c1)C1CCOCC1 [Compound no. 495, 4-(3-fluoro-4-hydroxyphenyl)-N-methyl-N-(tetrahydro-2H-pyran-4-yl)-1H-imidazole-1-carboxamide]
16 |  |  | 12.6 % of control | 21.4 % of control | CCCN1CCC(N(C)C(=O)n2cnc(-c3cccc(OC)c3)c2)CC1 [Compound no. 498, 4-(3-methoxyphenyl)-N-methyl-N-(1-propylpiperidin-4-yl)-1H-imidazole-1-carboxamide]
17 |  |  | 44.1 % of control | 120.6 % of control | CN(C(=O)n1cnc(-c2ccc(O)c(C(N)=O)c2)c1)C1CCCCC1 [Compound no. 499, 4-(3-carbamoyl-4-hydroxyphenyl)-N-cyclohexyl-N-methyl-1H-imidazole-1-carboxamide]
18 |  |  | 21.8 % of control | 75.1 % of control | CN(C(=O)n1cnc(-c2ccc(F)c(O)c2)c1)C1CCOCC1 [Compound no. 500, 4-(4-fluoro-3-hydroxyphenyl)-N-methyl-N-(tetrahydro-2H-pyran-4-yl)-1H-imidazole-1-carboxamide]
19 |  |  | 67.4 % of control | 108.5 % of control | COc1ccc(-c2cn(C(=O)N(C)C3CCNCC3)cn2)cc1 [Compound no. 501, 4-(4-methoxyphenyl)-N-methyl-N-(piperidin-4-yl)-1H-imidazole-1-carboxamide]
